The numbers were not newly measured in paper PMC8679620, “Receptor-Targeted Photodynamic Therapy of Glucagon-Like Peptide 1 Receptor–Positive Lesions” (Journal of Nuclear Medicine, 2020), which cites them from elsewhere.

The conditions of this data set: at 689 nm; ref [12],[17]. From the text:
Exendin-4-IRDye700DX was supplied by piCHEM. IRDye700DX NHS ester was obtained from LI-COR Biosciences.

Regarding `C[Si](C)(CCC[N+](CCCS(=O)(=O)[O-])(CCCS(=O)(=O)[O-])CCCS(=O)(=O)[O-])O[Si]1(O[Si](C)(C)CCC[N+](CCCS(=O)(=O)[O-])(CCCS(=O)(=O)[O-])CCCS(=O)(=O)[O-])n2c3c4ccccc4c2N=C2N=C(N=c4c5ccccc5c(n41)=NC1=NC(=N3)c3ccccc31)c1cccc(OCCCOC(=O)NCCCCCC(=O)ON3C(=O)CCC3=O)c12.[Na+].[Na+].[Na+].[Na+]` (stereo not shown) [IRDye700DX], the extinction coefficient was 210000 M⁻¹ cm⁻¹.
